The results in this text go back to US9227919B2, “Arylalkylamine compounds as calcium sensing receptor modulators” (Lupin Limited, priority 2012, dated 2016).

Counter-ions that a name gives are not always drawn.

For this test, the target named is T1, Calcium Sensing Receptor (CaSR) (Homo sapiens, UniProt P41180).
T1 construct: expressed in transfected cells
T1 sequence (P41180 20-1078): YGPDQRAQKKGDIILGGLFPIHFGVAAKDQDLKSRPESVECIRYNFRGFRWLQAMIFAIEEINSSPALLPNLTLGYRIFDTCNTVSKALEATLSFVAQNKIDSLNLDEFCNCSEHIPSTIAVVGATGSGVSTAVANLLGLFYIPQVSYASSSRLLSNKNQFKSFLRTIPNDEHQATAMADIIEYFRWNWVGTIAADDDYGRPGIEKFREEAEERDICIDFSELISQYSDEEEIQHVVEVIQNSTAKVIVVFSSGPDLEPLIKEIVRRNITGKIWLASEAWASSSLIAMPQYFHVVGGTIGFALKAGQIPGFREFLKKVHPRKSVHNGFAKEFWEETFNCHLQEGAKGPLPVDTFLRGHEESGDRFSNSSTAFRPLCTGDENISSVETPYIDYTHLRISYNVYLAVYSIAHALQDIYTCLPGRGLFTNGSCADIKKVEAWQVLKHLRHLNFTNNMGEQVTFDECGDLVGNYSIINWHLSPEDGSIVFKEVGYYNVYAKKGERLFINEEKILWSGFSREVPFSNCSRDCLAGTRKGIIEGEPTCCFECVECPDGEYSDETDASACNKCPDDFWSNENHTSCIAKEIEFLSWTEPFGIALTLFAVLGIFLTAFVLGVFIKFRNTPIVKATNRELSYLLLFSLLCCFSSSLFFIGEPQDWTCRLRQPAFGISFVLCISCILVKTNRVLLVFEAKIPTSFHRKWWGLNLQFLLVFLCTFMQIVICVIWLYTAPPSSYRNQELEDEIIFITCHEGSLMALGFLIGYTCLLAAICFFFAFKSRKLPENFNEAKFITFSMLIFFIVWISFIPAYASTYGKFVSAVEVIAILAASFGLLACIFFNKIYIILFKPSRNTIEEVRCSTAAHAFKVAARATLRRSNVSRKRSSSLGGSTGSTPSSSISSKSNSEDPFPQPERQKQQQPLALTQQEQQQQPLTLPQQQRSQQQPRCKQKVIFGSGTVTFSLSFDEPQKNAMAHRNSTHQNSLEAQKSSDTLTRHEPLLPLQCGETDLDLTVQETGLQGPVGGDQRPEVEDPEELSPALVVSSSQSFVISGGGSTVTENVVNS
Put plainly: In-vitro assay of calcimimetics through modulation of Calcium Sensing Receptor (intracellular calcium increase, FLIPR). The settings on record: stably transfected HEK293 cells expressing hCaSR; Fluo4NW dye; 0.3 mM CaCl2; 8-point assay; read-out: EC50 Range. It is filed as cell-based. The method, then: Certain illustrative compounds within the scope of the invention are screened for CaSR activity according to the procedure given below. The screening of the compounds may also be carried by other methods and procedures known to skilled in the art.
In-vitro assay method of Calcimimetics through modulation of Calcium Sensing Receptor (CaSR):
The ability of the compounds to modulate Calcium sensing receptor is determined by measuring an increase in intracellular calcium [Ca^2+]i. Stably transfected HEK293 cells expressing hCaSR_pTriEx-3 hygro vector are developed. Cells are grown overnight on a 96-well plate to 80% confluency in Ham's F12 containing 20% FBS at 37° C., 5% CO2. Subsequently, cells are washed extensively with 20 mM HEPES buffer containing 126 mM […], 1 mM MgCl2 and 4 mM KCl to remove serum components that might interfere with the assay. Cells are loaded with calcium sensing Fluo4NW dye in HEPES base buffer containing 0.1% BSA and lmg/ml glucose for 30 minutes to measure changes in intracellular calcium. The activities of the compounds are measured in FLIPR using 0.3 mM CaCl2 in 20 mM HEPES base buffer. The effectiveness of the compound to modulate receptor activity is determined by calculating the EC50 responses for that compound in an 8-point assay and plotted using GraphPad Prism 5.
The compounds prepared were tested using the above assay procedure and the results obtained are given below.
In general terms: Calcium assays in cells follow changes in intracellular calcium, usually with a dye or a luminescent sensor.

A word on the EC50: it is the concentration at which the effect is half-maximal. Regarding `C[C@@H](NCC1Cc2ccccc2C(c2cccc(C(=O)O)c2)C1)c1cccc2ccccc12` (single isomer, unassigned) [Example 2a, hydrochloride], the EC50 was under 20 nM.
For `C[C@@H](NCC1Cc2ccccc2C(c2cccc(C(=O)O)c2)C1)c1cccc2ccccc12` (single isomer, unassigned) [Example 2b, hydrochloride], the concentration giving a half-maximal response (EC50) lay in the range of 50 to 200 nM.
To `C[C@@H](NCC1Cc2ccccc2C(c2cccc(C(=O)O)c2)C1)c1cccc2ccccc12` (single isomer, unassigned) [Example 2c, hydrochloride] belongs 20 to 50 nM.
As for `C[C@@H](NCC1Cc2ccccc2C(c2ccc(F)c(C(=O)O)c2)C1)c1cccc2ccccc12` (single isomer, unassigned) [Example 7a, hydrochloride], the half-maximal effective concentration (EC50) was under 20 nM.
In the case of `C[C@@H](NCC1Cc2ccccc2C(c2ccc(F)c(C(=O)O)c2)C1)c1cccc2ccccc12` (single isomer, unassigned) [Example 7b, hydrochloride], the half-maximal effective concentration (EC50) was under 20 nM.
On to `C[C@@H](NCC1Cc2ccccc2C(c2ccc(F)c(C(=O)O)c2)C1)c1cccc2ccccc12` (single isomer, unassigned) [Example 7c, hydrochloride], for which the EC50 fell in the range of 20 to 50 nM.
For `Cc1ccc(C2CC(CN[C@H](C)c3cccc4ccccc34)Cc3ccccc32)cc1C(=O)O` (single isomer, unassigned) [Example 8a, hydrochloride], the half-maximal effective concentration (EC50) is under 20 nM.
To `Cc1ccc(C2CC(CN[C@H](C)c3cccc4ccccc34)Cc3ccccc32)cc1C(=O)O` (single isomer, unassigned) [Example 8b, hydrochloride] belongs under 20 nM; to `Cc1ccc(C2CC(CN[C@H](C)c3cccc4ccccc34)Cc3ccccc32)cc1C(=O)O` (single isomer, unassigned) [Example 8c, hydrochloride], 50 to 200 nM; to `Cc1ccc(C2CC(CN[C@H](C)c3cccc4ccccc34)Cc3ccccc32)cc1C(=O)O` (single isomer, unassigned) [Example 8d, hydrochloride], 20 to 50 nM.
With `Cc1cc(C(=O)O)cc(C2CC(CN[C@H](C)c3cccc4ccccc34)Cc3ccccc32)c1` (single isomer, unassigned) [Example 9b, hydrochloride] the figure was 20 to 50 nM; with `Cc1cc(C(=O)O)cc(C2CC(CN[C@H](C)c3cccc4ccccc34)Cc3ccccc32)c1` (single isomer, unassigned) [Example 9c, hydrochloride], 50 to 200 nM.
In the case of `Cc1ccc(C2CC(CN[C@H](C)c3cccc4ccccc34)Cc3ccccc32)c(C)c1C(=O)O` (single isomer, unassigned) [Example 10a, hydrochloride], the EC50 is under 20 nM.
In the case of `Cc1cc(C2C[C@H](CN[C@H](C)c3cccc4ccccc34)Cc3ccccc32)ccc1C(=O)O` (single isomer, unassigned) [Example 13a, hydrochloride], the concentration for a half-maximal effect (EC50) lay within 20 to 50 nM.
For `Cc1cc(C2C[C@H](CN[C@H](C)c3cccc4ccccc34)Cc3ccccc32)ccc1C(=O)O` (single isomer, unassigned) [Example 13b, hydrochloride], the EC50 is under 20 nM.
With `Cc1ccc(C(=O)O)cc1C1C[C@H](CN[C@H](C)c2cccc3ccccc23)Cc2ccccc21` (single isomer, unassigned) [Example 14a, hydrochloride] the figure was 50 to 200 nM; with `Cc1ccc(C(=O)O)cc1C1C[C@H](CN[C@H](C)c2cccc3ccccc23)Cc2ccccc21` (single isomer, unassigned) [Example 14b, hydrochloride], under 20 nM.
Take `COc1cc([C@@H](C)NC[C@@H]2Cc3ccccc3C(c3ccc(C)c(C(=O)O)c3)C2)ccc1F` (single isomer, unassigned) [Example 16a, hydrochloride]: the EC50 is under 20 nM.
With `COc1cc([C@@H](C)NC[C@@H]2Cc3ccccc3C(c3ccc(C)c(C(=O)O)c3)C2)ccc1F` (single isomer, unassigned) [Example 16b, hydrochloride] the figure was 20 to 50 nM; with `Cc1ccc(C2C[C@H](CN[C@H](C)c3ccc(F)c4ccccc34)Cc3ccccc32)cc1C(=O)O` (single isomer, unassigned) [Example 19a, hydrochloride], under 20 nM; with `Cc1ccc(C2C[C@H](CN[C@H](C)c3ccc(F)c4ccccc34)Cc3ccccc32)cc1C(=O)O` (single isomer, unassigned) [Example 19b, hydrochloride], 20 to 50 nM.
With `Cc1ccc(C2C[C@H](CCN[C@H](C)c3cccc4ccccc34)Cc3ccccc32)cc1C(=O)O` (single isomer, unassigned) [Example 27a, hydrochloride] the figure was under 20 nM; with `Cc1ccc(C(=O)O)cc1N1CC(CN[C@H](C)c2cccc3ccccc23)Cc2ccccc21` (single isomer, unassigned) [Example 70b, hydrochloride], 50 to 200 nM.
`Cc1ccc(N2CC(CN[C@H](C)c3cccc4ccccc34)Cc3ccccc32)c(C)c1C(=O)O` (single isomer, unassigned) [Example 71a, hydrochloride]: the 50% effective concentration (EC50) is under 20 nM.
To `Cc1ccc(N2CC(CN[C@H](C)c3ccc(F)c4ccccc34)Cc3ccccc32)cc1C(=O)O` (single isomer, unassigned) [Example 72b, hydrochloride] belongs 20 to 50 nM; to `COc1cc([C@@H](C)NCC2Cc3ccccc3N(c3ccc(C)c(C(=O)O)c3)C2)ccc1F` (single isomer, unassigned) [Example 73a, hydrochloride], under 20 nM.
In the case of `COc1cc([C@@H](C)NCC2Cc3ccccc3N(c3ccc(C)c(C(=O)O)c3)C2)ccc1F` (single isomer, unassigned) [Example 73b, hydrochloride], the 50% effective concentration (EC50) was 50 to 200 nM.
To `Cc1ccc(N2CC(CN[C@H](C)c3cccc4ccccc34)Cc3cc(F)ccc32)cc1C(=O)O` (single isomer, unassigned) [Example 75a, hydrochloride] belongs under 20 nM.
On to `Cc1ccc(N2CC(CCN[C@H](C)c3cccc4ccccc34)Cc3ccccc32)cc1C(=O)O` (single isomer, unassigned) [Example 76b, hydrochloride], for which the EC50 is 20 to 50 nM.
With `Cc1ccc(N2CC(CCN[C@H](C)c3cccc4ccccc34)Cc3ccccc32)cc1OCC(=O)O` (single isomer, unassigned) [Example 77b, hydrochloride] the figure was under 20 nM; with `Cc1ccc(N2CC(CCCN[C@H](C)c3cccc4ccccc34)Cc3ccccc32)cc1C(=O)O` (single isomer, unassigned) [Example 78b, hydrochloride], under 20 nM; with `Cc1c(C(=O)O)cccc1N1CC(CCCN[C@H](C)c2ccc(F)c3ccccc23)Cc2ccccc21` (single isomer, unassigned) [Example 79a, hydrochloride], under 20 nM.
With `Cc1ccc(N2CC(CCCN[C@H](C)c3cccc4ccccc34)Cc3ccccc32)cc1OCC(=O)O` (single isomer, unassigned) [Example 80b, hydrochloride] the figure was 20 to 50 nM.
Consider `COc1cc([C@@H](C)NC[C@@H]2Cc3ccccc3C(c3ccc(C)c(C(=O)O)c3C)C2)ccc1F` (stereo partly drawn) [Example 17, 3-((3S)-3-((((R)-1-(4-Fluoro-3-methoxyphenyl)ethyl)amino)methyl)-1,2,3,4-tetrahydronaphthalen-1-yl)-2,6-dimethylbenzoic acid hydrochloride], for which the EC50 was under 20 nM.
